Some results are limits rather than exact numbers.

One series concerns HBG1 mRNA. As to the kind of experiment: HBG1 mRNA levels by RT-qPCR in differentiated CD34+ cells. In kind it is cell-based, human. The note with it: 7-day treatment. From the text:
(§1) Cell Culture and differentiation protocol. Human bone marrow derived CD34+ cells from healthy donors were purchased from StemCell (#70002.2). The CD34+ cells were differentiated using the STEMdiff™ Erythroid kit (StemCell #100-0074) according to manufacturer's instructions. The CD34+ cells were differentiated for 14 days, and the differentiation medium consisted of StemSpan™ SFEM II media and 10% of STEMdiff™ Erythroid Supplement E2 (10×). The CD34+ cells were thawed and plated in a 12-well plate (Corning #3512) at a density of 40,000 cells/well in 1 mL of differentiation media. 100 μL of STEMdiff™ Erythroid Supplement E2 (10×) was added to each well on Day 2, 4, 9 and 11 during differentiation. On day 7, cells were passaged and replated at a density of 167,000 cells/well in a 12-well plate. Flow cytometry was performed every 7 days to assess the stages of differentiation using anti-human CD71 and anti-human glycophorin A (CD235a) antibody (StemCell #60106AZ; #60152FI).
(§2) Treatment of differentiated CD34+ cells with compound Example 32 or hydroxyurea (HU). After 14 days of differentiation, cells were plated in a 12-well plate at a density of 150,000 cells/well in 1 mL differentiation media in quadruplets. The next day, cells were treated with vehicle, 7 concentrations of compound Example 32 in concentrations ranging from 15.625 nM to 1 μM ([…] serial dilution) and 20 μM of HU. 100 μL of STEMdiff™ Erythroid Supplement E2 (10×) was added to each well on Day 2 and 4. Cells were treated with vehicle, compound Example 32, or HU for 7 days and were then harvested for RT-qPCR and flow cytometry.
(§3) RNA extraction and RT-qPCR analysis. The cell pellets harvested for mRNA analysis were first washed once with PBS and then resuspended in 600 μL of RLT lysis buffer (from the Qiagen kit) supplemented with 1% of beta-mercaptoethanol (Sigma-Aldrich #M6250). […] The extracted RNA was then quantified using a NanoDrop™ 8000 Spectrophotometer (ThermoFisher #ND8000-GL, software version 2.3.2). […]
A general note: Quantitative PCR measures a nucleic acid by following its amplification.

Series [1] relates to bone marrow derived CD34+ cells differentiated into erythroid progenitor cells. As to the kind of experiment: Percentage of F cells (fetal hemoglobin containing cells) by flow cytometry in differentiated CD34+ cells. In kind it is cell-based, human. The note with it: 7-day treatment; for fold increase in % F cells: vs vehicle.
Text: as §1, §2
Flow Cytometry. The cell pellets harvested for flow cytometry analysis were collected in a V-shaped 96-well polypropylene plate (ThermoFisher #249944). The cells were washed with PBS and resuspended in 100 μL of PBS. The cells were first stained with eFluor 450 viability dye (diluted 1:250 in cold PBS; Invitrogen #65-0863-14) for 5 minutes on ice in the dark followed by incubation in Fc receptor blocking solution for 10 minutes (BioLegend #422302). […] Cells were washed twice and resuspended in FACS buffer and then analyzed by flow cytometry. Data was acquired using SONY SA3800 cytometer (software version 2.0.4.13263) and analyzed using FlowJo.
Bone marrow derived CD34+ cells from two healthy human donors (donor A and donor B) were differentiated into erythroid progenitor cells (erythroblasts) expressing Glycophorin A and CD71. Fourteen-day differentiated cells were then treated with vehicle (veh), different concentrations of compound Example 32, or 20 μM HU for 7 days and cells were analyzed for increase in fetal hemoglobin levels at both mRNA and protein levels. […]
(In general: In flow cytometry, cells or beads pass a laser one at a time.)

In a further series the test system is HBG2 mRNA. As to the kind of experiment: HBG2 mRNA levels by RT-qPCR in differentiated CD34+ cells. The class given is cell-based, human. The note with it: 7-day treatment.
Text: as §1, §2, §3

Series [2] addresses purified human, His-tagged PRC2 complex (Homo sapiens (Human), UniProt O75530). Briefly: Hot Spot HMT assay, inhibition of PRC2 enzymatic activity. The class given is biochemical. The note with it: 10 nM PRC2 complex, 1 μM 3H-SAM, core histone H3, 10-point dose-response. Put shortly:
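Methyl transfer from 1 μM tritiated SAM onto 0.05 mg/ml core histone H3, catalysed by 10 nM His/Flag-tagged human PRC2 holoenzyme, was run 1 hr at 30° C after a 20 min compound preincubation. Serial dilutions began at 1.0 μM; product captured on filters and counted.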

Setting [3] is: Donor A, normalized to RPL27, relative to vehicle.
Where [4] appears, read: Donor B, normalized to RPL27, relative to vehicle.

Chain of purified human, His-tagged PRC2 complex (O75530 whole entry): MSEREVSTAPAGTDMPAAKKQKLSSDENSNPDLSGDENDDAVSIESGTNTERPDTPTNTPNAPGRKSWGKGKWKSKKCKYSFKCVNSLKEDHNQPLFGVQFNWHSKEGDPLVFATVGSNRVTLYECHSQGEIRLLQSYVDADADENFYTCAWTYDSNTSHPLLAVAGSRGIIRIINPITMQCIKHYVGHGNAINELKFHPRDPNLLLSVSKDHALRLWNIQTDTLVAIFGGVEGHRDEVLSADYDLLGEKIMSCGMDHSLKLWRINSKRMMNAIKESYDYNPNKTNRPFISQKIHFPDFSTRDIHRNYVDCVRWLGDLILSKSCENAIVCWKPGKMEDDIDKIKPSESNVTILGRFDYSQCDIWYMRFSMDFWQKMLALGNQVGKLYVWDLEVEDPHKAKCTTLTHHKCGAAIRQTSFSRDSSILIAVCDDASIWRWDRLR
Chain of purified human, His-tagged PRC2 complex (Q15910 whole entry partner): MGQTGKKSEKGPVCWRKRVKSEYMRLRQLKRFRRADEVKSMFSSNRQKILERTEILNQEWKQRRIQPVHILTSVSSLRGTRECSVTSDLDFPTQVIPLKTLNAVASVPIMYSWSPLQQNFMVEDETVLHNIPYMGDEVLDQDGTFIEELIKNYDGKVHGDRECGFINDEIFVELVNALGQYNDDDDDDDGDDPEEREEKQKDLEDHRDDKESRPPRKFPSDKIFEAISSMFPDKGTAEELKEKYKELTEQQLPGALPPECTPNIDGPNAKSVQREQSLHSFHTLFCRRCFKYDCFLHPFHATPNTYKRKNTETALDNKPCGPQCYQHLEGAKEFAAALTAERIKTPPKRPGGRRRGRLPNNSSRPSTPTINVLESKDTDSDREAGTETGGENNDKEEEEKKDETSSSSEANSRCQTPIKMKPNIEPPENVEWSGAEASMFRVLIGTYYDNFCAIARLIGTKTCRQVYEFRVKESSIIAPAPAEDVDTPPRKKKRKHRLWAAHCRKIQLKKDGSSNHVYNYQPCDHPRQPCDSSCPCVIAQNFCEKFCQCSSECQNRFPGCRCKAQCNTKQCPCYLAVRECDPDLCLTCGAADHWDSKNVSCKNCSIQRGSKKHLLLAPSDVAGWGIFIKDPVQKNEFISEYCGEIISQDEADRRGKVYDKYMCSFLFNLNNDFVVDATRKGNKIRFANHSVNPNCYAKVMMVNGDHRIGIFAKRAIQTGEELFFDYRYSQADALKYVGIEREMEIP
Chain of purified human, His-tagged PRC2 complex (Q15022 whole entry partner): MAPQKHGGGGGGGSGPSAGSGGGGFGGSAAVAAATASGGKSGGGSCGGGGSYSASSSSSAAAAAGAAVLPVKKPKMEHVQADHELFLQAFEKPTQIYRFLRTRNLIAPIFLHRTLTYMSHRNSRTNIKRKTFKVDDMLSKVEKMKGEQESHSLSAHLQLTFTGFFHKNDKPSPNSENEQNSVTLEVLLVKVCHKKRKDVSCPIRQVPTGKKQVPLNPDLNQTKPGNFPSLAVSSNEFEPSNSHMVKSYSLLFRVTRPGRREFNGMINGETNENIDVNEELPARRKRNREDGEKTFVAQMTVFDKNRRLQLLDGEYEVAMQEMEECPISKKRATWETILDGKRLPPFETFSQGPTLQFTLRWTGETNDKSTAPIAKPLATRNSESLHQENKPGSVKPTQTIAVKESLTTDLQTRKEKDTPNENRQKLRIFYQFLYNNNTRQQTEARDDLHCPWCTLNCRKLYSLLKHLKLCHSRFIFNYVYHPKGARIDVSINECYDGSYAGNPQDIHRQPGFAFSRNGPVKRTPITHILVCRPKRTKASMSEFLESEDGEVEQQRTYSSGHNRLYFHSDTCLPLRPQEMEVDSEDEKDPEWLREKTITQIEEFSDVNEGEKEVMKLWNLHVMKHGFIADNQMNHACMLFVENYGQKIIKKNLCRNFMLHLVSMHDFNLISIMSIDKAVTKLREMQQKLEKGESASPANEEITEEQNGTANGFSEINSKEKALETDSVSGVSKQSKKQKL
Chain of purified human, His-tagged PRC2 complex (Q6ZN18 whole entry partner): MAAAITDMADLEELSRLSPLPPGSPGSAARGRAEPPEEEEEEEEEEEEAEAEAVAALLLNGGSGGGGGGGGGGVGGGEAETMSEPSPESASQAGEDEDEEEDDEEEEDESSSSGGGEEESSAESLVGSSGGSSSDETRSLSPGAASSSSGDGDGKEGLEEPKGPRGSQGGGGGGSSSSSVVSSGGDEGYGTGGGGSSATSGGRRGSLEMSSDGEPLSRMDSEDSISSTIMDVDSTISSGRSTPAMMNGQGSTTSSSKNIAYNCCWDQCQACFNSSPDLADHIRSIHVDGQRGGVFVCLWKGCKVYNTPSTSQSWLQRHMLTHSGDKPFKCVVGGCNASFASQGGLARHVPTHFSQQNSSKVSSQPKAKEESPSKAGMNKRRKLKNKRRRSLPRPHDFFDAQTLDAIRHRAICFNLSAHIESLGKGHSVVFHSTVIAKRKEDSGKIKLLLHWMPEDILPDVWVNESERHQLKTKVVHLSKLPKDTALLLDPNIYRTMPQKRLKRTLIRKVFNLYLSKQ
Chain of purified human, His-tagged PRC2 complex (Q09028 whole entry partner): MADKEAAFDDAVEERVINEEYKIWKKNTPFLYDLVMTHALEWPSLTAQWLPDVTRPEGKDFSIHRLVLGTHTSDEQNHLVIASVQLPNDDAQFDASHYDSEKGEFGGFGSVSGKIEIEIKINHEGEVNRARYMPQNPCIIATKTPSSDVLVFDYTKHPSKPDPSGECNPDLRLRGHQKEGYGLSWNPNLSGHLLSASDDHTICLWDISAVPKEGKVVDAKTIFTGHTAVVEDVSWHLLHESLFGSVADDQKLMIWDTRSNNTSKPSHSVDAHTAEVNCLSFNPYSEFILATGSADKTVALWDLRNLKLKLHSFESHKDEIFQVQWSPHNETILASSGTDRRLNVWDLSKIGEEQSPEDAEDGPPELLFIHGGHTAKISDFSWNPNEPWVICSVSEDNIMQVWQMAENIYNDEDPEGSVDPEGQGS

For the molecule `NC(=O)NO` [HU, hydroxyurea, reference compound], the “fold increase in HBG1 mRNA levels” value in the series with HBG1 mRNA (Donor B, 20 μM, relative to vehicle) was 1.7 fold. Further, the “fold increase in % F cells” value in series [1] (Donor A, 20 μM) stood at 1.9 fold; in series [1] (Donor B, 20 μM) it was 1.3 fold. In the series on HBG2 mRNA (Donor A, 20 μM, relative to vehicle), the “fold increase in HBG2 mRNA levels” value worked out at 2.7 fold.
Regarding `Cc1cc(CN(C)C)ccc1-c1cnc(NCc2c(F)ccc3c2CCO3)n2cc(C#N)nc12` [Example 32], the “fold increase in HBG1 mRNA levels” value in the series on HBG1 mRNA (setting [3]) and in the series with HBG1 mRNA (setting [4]) was 4 fold in each case. In addition, the half-maximal inhibitory concentration (IC50) in series [2] was 100 to 500 nM. In series [1] (donors A and B, 14-day differentiated cells), the “% F cells (live cells with fetal hemoglobin)” value is recorded as 30-40%. In addition, the “fold increase in % F cells” value in series [1] (donors A and B, 14-day differentiated cells, 15.625 nM to 1 μM) is listed as 2.6-2.7 fold. In addition, the “fold increase in HBG2 mRNA levels” value with HBG2 mRNA (setting [3]) amounted to 9 fold; in the series on HBG2 mRNA (setting [4]), 4 fold.
Turning to `N#Cc1cn2c(NCc3c(F)ccc4c3CCO4)ncc(-c3ccc(CN4CCC(F)C4)cc3)c2n1` (stereo not shown) [Example 54, 5-(((5-fluoro-2,3-dihydrobenzofuran-4-yl)methyl)amino)-8-(4-((3-fluoropyrrolidin-1-yl)methyl)phenyl)imidazo[1,2-c]pyrimidine-2-carbonitrile], in series [2], the half-inhibitory concentration (IC50) is less than 100 nM.
In turn, `N#Cc1cn2c(NCc3c(F)ccc4c3CCO4)ncc(-c3ccc(C(=O)N4CCOCC4)cc3)c2n1` [Example 181, 5-(((5-fluoro-2,3-dihydrobenzofuran-4-yl)methyl)amino)-8-(4-(morpholine-4-carbonyl)phenyl)imidazo[1,2-c]pyrimidine-2-carbonitrile] showed an IC50 in series [2] of less than 100 nM.
On the same count and under the same terms, the value for `Cc1ncccc1-c1cnc(NCc2c(F)ccc3c2CCO3)n2cc(C(N)=O)nc12` [Example 137, 5-(((5-fluoro-2,3-dihydrobenzofuran-4-yl)methyl)amino)-8-(2-methylpyridin-3-yl)imidazo[1,2-c]pyrimidine-2-carboxamide] was less than 100 nM; that for `N#Cc1ccc(-c2cnc(NCc3c(F)ccc4c3CCO4)n3cc(C#N)nc23)cn1` [Example 128, 8-(6-cyanopyridin-3-yl)-5-(((5-fluoro-2,3-dihydrobenzofuran-4-yl)methyl)amino)imidazo[1,2-c]pyrimidine-2-carbonitrile] was less than 100 nM.
Still for that read-out and setting: the value for `CN(C)Cc1ncc(-c2cnc(NCc3c(F)ccc4c3CCO4)n3cc(C#N)nc23)cn1` [Example 216, 8-(2-((dimethylamino)methyl)pyrimidin-5-yl)-5-(((5-fluoro-2,3-dihydrobenzofuran-4-yl)methyl)amino)imidazo[1,2-c]pyrimidine-2-carbonitrile] was less than 100 nM; that for `CN(C)Cc1ccc(-c2cnc(NCc3c(F)ccc4c3CCO4)n3cc(C#N)nc23)cc1` [Example 112, 8-(4-((dimethylamino)methyl)phenyl)-5-(((5-fluoro-2,3-dihydrobenzofuran-4-yl)methyl)amino)imidazo[1,2-c]pyrimidine-2-carbonitrile] was less than 100 nM.
On the same count and under the same terms, for `CN(C)C(=O)c1ccc(-c2cnc(NCc3c(F)ccc4c3CCO4)n3cc(C#N)nc23)c(Cl)c1` [Example 31, 3-chloro-4-(2-cyano-5-(((5-fluoro-2,3-dihydrobenzofuran-4-yl)methyl)amino)imidazo[1,2-c]pyrimidin-8-yl)-N,N-dimethylbenzamide] the value was less than 100 nM; for `COCCOc1ccc(-c2cnc(NCc3c(F)ccc4c3CCO4)n3cc(C#N)nc23)cc1` [Example 161, 5-(((5-fluoro-2,3-dihydrobenzofuran-4-yl)methyl)amino)-8-(4-(2-methoxyethoxy)phenyl)imidazo[1,2-c]pyrimidine-2-carbonitrile], less than 100 nM.
In the case of `N#Cc1cn2c(NCc3c(F)ccc4c3CCO4)ncc(-c3ccc4c(c3)CCNC4=O)c2n1` [Example 172, 5-(((5-fluoro-2,3-dihydrobenzofuran-4-yl)methyl)amino)-8-(1-oxo-1,2,3,4-tetrahydroisoquinolin-6-yl)imidazo[1,2-c]pyrimidine-2-carbonitrile], the IC50 in series [2] was less than 100 nM.
On the same count and under the same terms, for `Cc1cc(-c2cnc(NCc3c(F)ccc4c3CCO4)n3cc(C#N)nc23)cnn1` [Example 41, 5-(((5-fluoro-2,3-dihydrobenzofuran-4-yl)methyl)amino)-8-(6-methylpyridazin-4-yl)imidazo[1,2-c]pyrimidine-2-carbonitrile] the value was less than 100 nM; for `N#Cc1cn2c(NCc3c(F)ccc4c3CCO4)ncc(-c3cnn(Cc4cccnc4)c3)c2n1` [Example 101, 5-(((5-fluoro-2,3-dihydrobenzofuran-4-yl)methyl)amino)-8-(1-(pyridin-3-ylmethyl)-1H-pyrazol-4-yl)imidazo[1,2-c]pyrimidine-2-carbonitrile], 100 to 500 nM.
`N#Cc1cn2c(NCc3c(F)ccc4c3CCO4)ncc(-c3cnccn3)c2n1` [Example 68, 5-(((5-fluoro-2,3-dihydrobenzofuran-4-yl)methyl)amino)-8-(pyrazin-2-yl)imidazo[1,2-c]pyrimidine-2-carbonitrile] returned an IC50 in series [2] of less than 100 nM.
Same read-out and setting: for `Cc1cc(-c2cnc(NCc3c(F)ccc4c3CCO4)n3cc(C(N)=O)nc23)n(C)n1` [Example 11, 8-(1,3-dimethyl-1H-pyrazol-5-yl)-5-(((5-fluoro-2,3-dihydrobenzofuran-4-yl)methyl)amino)imidazo[1,2-c]pyrimidine-2-carboxamide] the value was less than 100 nM; for `Cc1cc(-c2cnc(NCc3c(F)ccc4sccc34)n3cc(C#N)nc23)n(C)n1` [Example 81, 8-(1,3-dimethyl-1H-pyrazol-5-yl)-5-(((5-fluorobenzo[b]thiophen-4-yl)methyl)amino)imidazo[1,2-c]pyrimidine-2-carbonitrile], greater than 500 nM.

As a reminder, the IC50 is the midpoint of a concentration-inhibition curve. A higher IC50 goes with weaker potency in that assay.

For the origin of these results see patent US20240398811A1, “PRC2 INHIBITORS FOR USE IN TREATING BLOOD DISORDERS” (ORIC Pharmaceuticals, Inc., priority 2021, published 2024).
